# Source: US12415815B2, “Pyrido[2,3-e]oxazine derivatives as agricultural chemicals” (GLOBACHEM NV, priority 2020, dated 2025)
# Legend:
# Type in all cases: cell-based
# Botrytis cinerea = experiment: Fungicidal activity screen in amended agar, 96 well plates, Botrytis cinerea; settings: Medium N agar, 5,000 spores/ml, 20, 2, 0.2 and 0.02 ppm, room temperature (18° C.), assessed after 3 to 4 days, read-out: Botrytis (fungal growth vs DMSO controls, EC50 ranking)
# Experimental: (§1) Compounds were screened in 96 well plates with 10 compounds per plate. Each compound was screened using agar amended to 20, 2, 0.2 and 0.02 ppm of the test material. Proline at 50 and 10 ppm and 0.2% DMSO were used respectively as positive and negative controls. Each test concentration and standard were tested twice on a plate.
# (§2) Compounds were screened against the following three fungal pathogens—Botrytis cinerea, Alternaria alternata and Zymoseptoria tritici. The agar used in the test varied depending on the pathogen with Medium N used for B. cinerea and A. alternata and 1% potato dextrose agar for Z. tritici. For each pathogen sufficient spores were added to the appropriate agar to give 1,000 spores/mL agar of A. alternata, 5,000 spores/ml agar of B. cinerea and 10,000 spores/mL agar of Z. tritici.
# (§3) A ×10 stock solution in 2% DMSO was produced for each dose i.e. 200, 20, 2 and 0.2 ppm, and 10 μl of this added to the appropriate wells on the plate. An equivalent amount of 2% DMSO and Proline stock at 500 and 100 ppm were added for the controls. To each well, 90 μl of the appropriate agar spore suspension was added to give the final well concentrations outlined in the first paragraph.
# (§4) Plates were incubated at room temperature (18° C.) and assessed after: • a) 3 to 4 days A. alternata and B. cinerea • b) 7 days for Z. tritici
# (§5) The amount of fungal growth in each well was compared to the DMSO controls and scored according to the following key: • A—EC50<2 ppm • B—2≤EC50<20 • C—EC50≥20 • D—No activity detected at the highest dose tested • NT—Not tested
# Alternaria alternata = experiment: Fungicidal activity screen in amended agar, 96 well plates, Alternaria alternata; settings: Medium N agar, 1,000 spores/mL, 20, 2, 0.2 and 0.02 ppm, room temperature (18° C.), assessed after 3 to 4 days, read-out: Alternaria (fungal growth vs DMSO controls, EC50 ranking)
# Experimental: as §1, §2, §3, §4, §5
# Zymoseptoria tritici = experiment: Fungicidal activity screen in amended agar, 96 well plates, Zymoseptoria tritici; settings: Zymoseptoria tritici, 168 h; 1% potato dextrose agar, 10,000 spores/mL, 20, 2, 0.2 and 0.02 ppm, room temperature (18° C.), assessed after 7 days; read-out: Zymoseptoria (fungal growth vs DMSO controls, EC50 ranking)
# Experimental: as §1, §2, §3, §4, §5
Structure (SMILES),EC50 (Botrytis cinerea),EC50 (Alternaria alternata),EC50 (Zymoseptoria tritici)
"COc1ccnc2c(=O)n(-c3nc4ccc(Cc5ccccc5Cl)cc4s3)c(=S)oc12 [Example 29, 3-(6-(2-Chlorobenzyl)benzo[d]thiazol-2-yl)-8-methoxy-2-thioxo-2,3-dihydro-4H-pyrido[2,3-e][1,3]oxazin-4-one]",≥ 20 µg/mL,≥ 20 µg/mL,< 2 µg/mL
"COc1ccnc2c(=O)n(-c3nc4ccc(Oc5ccccc5Cl)nc4s3)c(=S)oc12 [Example 40, 3-(5-(2-chlorophenoxy)thiazolo[5,4-b]pyridin-2-yl)-8-methoxy-2-thioxo-2,3-dihydro-4H-pyrido[2,3-e][1,3] oxazin-4-one]",≥ 20 µg/mL,≥ 20 µg/mL,< 2 µg/mL
"COc1ccnc2c(=O)n(-c3nc4ccc(Oc5ccccc5C(F)(F)F)cc4s3)c(=S)oc12 [Example 20, 8-Methoxy-2-thioxo-3-(6-(2-(trifluoromethyl)phenoxy)benzo[d]thiazol-2-yl)-2,3-dihydro-4H-pyrido[2,3-e][1,3]oxazin-4-one]",2 to 20 µg/mL,2 to 20 µg/mL,< 2 µg/mL
"COc1ccnc2c(=O)n(-c3nc4ccc(Oc5cccc(F)c5)cc4s3)c(=S)oc12 [Example 11, 3-(6-(3-Fluorophenoxy)benzo[d]thiazol-2-yl)-8-methoxy-2-thioxo-2,3-dihydro-4H-pyrido[2,3-e][1,3]oxazin-4-one]",2 to 20 µg/mL,2 to 20 µg/mL,2 to 20 µg/mL
"COc1ccnc2c(=O)n(-c3nc4ccc(Oc5cncc(C(F)(F)F)c5)cc4s3)c(=O)oc12 [Example 2, 8-Methoxy-3-(6-((5-(trifluoromethyl)pyridin-3-yl)oxy)benzo[d]thiazol-2-yl)-2H-pyrido[2,3-e][1,3]oxazine-2,4(3H)-dione]",2 to 20 µg/mL,2 to 20 µg/mL,< 2 µg/mL
"COc1ccnc2c(=O)n(-c3nc4ccc(Sc5cccnc5Cl)cc4s3)c(=S)oc12 [Example 47, 3-(6-((2-chloropyridin-3-yl)thio)benzo[d]thiazol-2-yl)-8-methoxy-2-thioxo-2,3-dihydro-4H-pyrido[2,3-e][1,3]oxazin-4-one]",≥ 20 µg/mL,≥ 20 µg/mL,< 2 µg/mL
"COc1ccnc2c(=O)n(-c3nc4ccc(Sc5ccccc5Cl)nc4s3)c(=S)oc12 [Example 38, 3-(5-((2-chlorophenyl)thio)thiazolo [5,4-b]pyridin-2-yl)-8-methoxy-2-thioxo-2,3-dihydro-4H-pyrido[2,3-e][1,3]oxazin-4-one]",≥ 20 µg/mL,≥ 20 µg/mL,< 2 µg/mL
"COc1ccnc2c(=O)n(-c3nc4ccc(Oc5cncc(Cl)c5)cc4s3)c(=S)oc12 [Example 7, 3-(6-((5-Chloropyridin-3-yl)oxy)benzo[d]thiazol-2-yl)-8-methoxy-2-thioxo-2,3-dihydro-4H-pyrido[2,3-e][1,3]oxazin-4-one]",2 to 20 µg/mL,2 to 20 µg/mL,< 2 µg/mL
"COc1ccnc2c(=O)n(-c3nc4ccc(Oc5cccnc5Cl)nc4s3)c(=S)oc12 [Example 41, 3-(5-((2-chloropyridin-3-yl)oxy)thiazolo[5,4-b]pyridin-2-yl)-8-methoxy-2-thioxo-2,3-dihydro-4H-pyrido[2,3-e][1,3]oxazin-4-one]",≥ 20 µg/mL,≥ 20 µg/mL,≥ 20 µg/mL
"COc1ccnc2c(=O)n(-c3nc4ccc(Oc5ccccc5)cc4s3)c(=O)oc12 [Example 4, 8-Methoxy-3-(6-phenoxybenzo[d]thiazol-2-yl)-2H-pyrido[2,3-e][1,3]oxazine-2,4(3H)-dione]",2 to 20 µg/mL,2 to 20 µg/mL,< 2 µg/mL
"COc1ccnc2c(=O)n(-c3nc4ccc(OC5CCCC5)cc4s3)c(=S)oc12 [Example 23, 3-(6-(Cyclopentyloxy)benzo[d]thiazol-2-yl)-8-methoxy-2-thioxo-2,3-dihydro-4H-pyrido[2,3-e][1,3]oxazin-4-one]",2 to 20 µg/mL,≥ 20 µg/mL,< 2 µg/mL
"COc1ccnc2c(=O)n(-c3nc4ccc(Oc5ccc(F)cc5)cc4s3)c(=O)oc12 [Example 3, 3-(6-(4-Fluorophenoxy)benzo[d]thiazol-2-yl)-8-methoxy-2H-pyrido[2,3-e][1,3]oxazine-2,4(3H)-dione]",2 to 20 µg/mL,2 to 20 µg/mL,< 2 µg/mL
"COc1ccnc2c(=O)n(-c3nc4ccc(Oc5ccccc5OC(F)F)cc4s3)c(=S)oc12 [Example 50, 3-(6-(2-(difluoromethoxy)phenoxy)benzo[d]thiazol-2-yl)-8-methoxy-2-thioxo-2,3-dihydro-4H-pyrido[2,3-e][1,3]oxazin-4-one]",≥ 20 µg/mL,≥ 20 µg/mL,< 2 µg/mL
"COc1ccnc2c(=O)n(-c3nc4ccc(Oc5ccc(F)cc5Cl)cc4s3)c(=S)oc12 [Example 6, 3-(6-(2-Chloro-4-fluorophenoxy)benzo[d]thiazol-2-yl)-8-methoxy-2-thioxo-2,3-dihydro-4H-pyrido[2,3-e][1,3]oxazin-4-one]",2 to 20 µg/mL,2 to 20 µg/mL,< 2 µg/mL
"COc1ccnc2c(=O)n(-c3nc4ccc(OC5CCCCC5)cc4s3)c(=S)oc12 [Example 22, 3-(6-(Cyclohexyloxy)benzo[d]thiazol-2-yl)-8-methoxy-2-thioxo-2,3-dihydro-4H-pyrido[2,3-e][1,3]oxazin-4-one]",2 to 20 µg/mL,≥ 20 µg/mL,2 to 20 µg/mL
"CCOc1ccccc1Oc1ccc2nc(-n3c(=S)oc4c(OC)ccnc4c3=O)sc2c1 [Example 49, 3-(6-(2-ethoxyphenoxy)benzo[d]thiazol-2-yl)-8-methoxy-2-thioxo-2,3-dihydro-4H-pyrido[2,3-e][1,3]oxazin-4-one]",≥ 20 µg/mL,≥ 20 µg/mL,< 2 µg/mL
"COc1ccnc2c(=O)n(-c3nc4ccc(Cc5ccc(F)cc5Cl)cc4s3)c(=S)oc12 [Example 28, 3-(6-(2-Chloro-4-fluorobenzyl)benzo[d]thiazol-2-yl)-8-methoxy-2-thioxo-2,3-dihydro-4H-pyrido[2,3-e][1,3]oxazin-4-one]",2 to 20 µg/mL,2 to 20 µg/mL,< 2 µg/mL
"COc1ccnc2c(=O)n(-c3nc4ccc(Oc5ccc(C(F)(F)F)cc5Cl)nc4s3)c(=S)oc12 [Example 48, 3-(5-(2-chloro-4-(trifluoromethyl)phenoxy)thiazolo[5,4-b]pyridin-2-yl)-8-methoxy-2-thioxo-2,3-dihydro-4H-pyrido[2,3-e][1,3]oxazin-4-one]",≥ 20 µg/mL,≥ 20 µg/mL,< 2 µg/mL
"COc1ccnc2c(=O)n(-c3nc4ccc(Oc5cccnc5Cl)cc4s3)c(=S)oc12 [Example 36, 3-(6-((2-chloropyridin-3-yl)oxy)benzo[d]thiazol-2-yl)-8-methoxy-2-thioxo-2,3-dihydro-4H-pyrido[2,3-e][1,3]oxazin-4-one]",≥ 20 µg/mL,≥ 20 µg/mL,< 2 µg/mL
"COc1ccnc2c(=O)n(-c3nc4ccc(Oc5ccccc5Cl)cc4s3)c(=O)oc12 [Example 5, 3-(6-(2-Chlorophenoxy)benzo[d]thiazol-2-yl)-8-methoxy-2H-pyrido[2,3-e][1,3]oxazine-2,4(3H)-dione]",2 to 20 µg/mL,2 to 20 µg/mL,< 2 µg/mL
"COc1ccnc2c(=O)n(-c3nc4ccc(Oc5cccc(Cl)c5)cc4s3)c(=S)oc12 [Example 9, 3-(6-(3-Chlorophenoxy)benzo[d]thiazol-2-yl)-8-methoxy-2-thioxo-2,3-dihydro-4H-pyrido[2,3-e][1,3]oxazin-4-one]",2 to 20 µg/mL,2 to 20 µg/mL,< 2 µg/mL
"COc1ccnc2c(=O)n(-c3nc4ccc(Oc5cncc(C(F)(F)F)c5)cc4s3)c(=S)oc12 [Example 8, 8-Methoxy-2-thioxo-3-(6-((5-(trifluoromethyl)pyridin-3-yl)oxy)benzo[d]thiazol-2-yl)-2,3-dihydro-4H-pyrido[2,3-e][1,3]oxazin-4-one]",2 to 20 µg/mL,2 to 20 µg/mL,< 2 µg/mL
"COc1ccnc2c(=O)n(-c3nc4ccc(Oc5ccc(F)cc5Cl)cc4s3)c(=O)oc12 [Example 1, 3-(6-(2-Chloro-4-fluorophenoxy)benzo[d]thiazol-2-yl)-8-methoxy-2H-pyrido[2,3-e][1,3]oxazine-2,4(3H)-dione]",2 to 20 µg/mL,2 to 20 µg/mL,< 2 µg/mL
